# Experimental data: patent US11612586B2, “Indole regulation of antigen presenting cells” (THE TEXAS A&M UNIVERSITY SYSTEM, priority 2016, dated 2023)
# Assays:
# CCR7 = CCR7 surface expression on BMDCs; type: cell-based, mouse
# Experimental: FIG. 14 graphically illustrates that indole upregulates CCR7 expression in DCs. Flow cytometric analysis were performed on BMDCs cultured from day 3 in the presence of indole (1 mM), RA (1 uM), or DMF control and either surface stained for CCR7 expression directly or treated with LPS (1 ug/ml) for 24 hours prior to CCR7 staining.
# Encountering maturation-inducing stimuli induces an upregulation of the chemokine receptor CCR7 in DCs. This shift promotes DC migration from peripheral tissues to the lymph nodes to present captured antigen. CCR7 expression facilitates this migration by rendering DCs sensitive to the chemoattractants, CCL19 and CCL21, which direct DCs to T cell areas of lymphoid tissues. […] Exposure to LPS is a DC-activating signal known to upregulate CCR7 expression in order to prime DCs for lymph node entry. Consistent with the literature, exposure to LPS for 24 hours further induced CCR7 expression in our BMDC cultures overall. Here, indole-conditioned DCs once again expressed a higher level of CCR7 expression compared to controls by over 3-fold in magnitude (FIG. 14).
# Th2 cells = assay: Th2 differentiation in DC-T cell co-culture; type: cell-based, mouse; settings: co-culture with DCs conditioned with indole
# Experimental: FIGS. 19A-19C graphically illustrate that indole-conditioned DCs inhibit Th1, Th2, and Th17 differentiation. Naïve CD4+CD25-T cells from OT-II TCR transgenic mice were isolated by column purification. Naïve T cells were then co-cultured with OVA323-339 peptide-loaded BMDCs for 72 hours in the presence or absence of lineage-skewing cytokines (described in methods). BMDCs were previously treated with indole, RA, or DMF from day 3. For the last 5 hours of culture, T cells were restimulated with PMA and ionomycin in the presence of Golgiplug, followed by intracellular staining. Cytokine production was determined to assess differentiation of Th1 (FIG. 19A), Th2 (FIG. 19B), and Th17 CD4+T (FIG. 19C) cells. Mean of three independent experiments. * indicates p<0.05 for one-way ANOVA followed by Dunnett's post-test.
# In order to determine whether the indole-conditioned DC induction of Tregs was specific to this lineage, additional T cell fates were quieried. Activated CD4+T helper cells are typically divided into the subsets Th1, Th2, Th17, and Treg, based on their expression of transcription factors and pattern of cytokine secretion. The antigen-specific co-culture system was used to investigate these remaining traditional T cell lineages with the addition of an endpoint PMA/Ionomycin stimulation to induce cytokine secretion. […]
smiles,measurement,setting,value
"c1ccc2[nH]ccc2c1 [Indole, indole]",CCR7 expression compared to controls,"CCR7; BMDCs, indole 1 mM from day 3, LPS for 24 hours",over 3 fold
same,increase in CCR7 expression over RA or solvent controls,"CCR7; day 7 freshly harvested BMDCs, indole 1 mM from day 3",approximately 5 fold
same,development of Th2 lineage,Th2 cells,stark inhibition
